Experimental data: patent US20210327553A1, “PREDICTION OF ADVERSE DRUG REACTION BASED ON MACHINE-LEARNED MODELS USING PROTEIN FUNCTION SCORES AND CLINICAL FACTORS” (Cipherome, Inc., priority 2020, published 2021)

Columns and labels:
COVID-19 = conditions: limited in-vitro and anecdotal data; cited from earlier work
[1] = prolonged use in patients with liver or kidney problems or immunosuppressed; cited from earlier work
[2] = Retrospective UK Biobank analysis of warfarin ADR records within first 90 days of administration; type: in vivo; conditions: n=612, ADR record (ICD9/10) within first 90 days of warfarin administration
Protocol: A retrospective analysis was conducted using genomic and phenotypic data from the UK Biobank (FIG. 2). […] Most common warfarin ADRs listed in the health registry data included non-traumatic, hemorrhage, gastrointestinal bleeding, and “ADRs due to anticoagulant use”.

| SMILES | in-vitro activity against COVID-19 (COVID-19) | cardiotoxicity [1] | ADR prevalence [2] |
| --- | --- | --- | --- |
| CCN(CC)CCCC(C)Nc1ccnc2cc(Cl)ccc12 (centres unmarked) [chloroquine] | have in-vitro activity against COVID-19 | cadiotoxicity (prolonged QT syndrome of irregular heartbeats) |  |
| CCN(CCO)CCCC(C)Nc1ccnc2cc(Cl)ccc12 (centres unmarked) [hydroxychloroquine] | have in-vitro activity against COVID-19 | cadiotoxicity (prolonged QT syndrome of irregular heartbeats) |  |
| CC(=O)CC(c1ccccc1)c1c(O)c2ccccc2oc1=O (centres unmarked) [warfarin] |  |  | 4.41% |
